From article PMC7534330, “UHPLC-MS/MS method for pharmacokinetic and bioavailability determination of five bioactive components in raw and various processed products of Polygala tenuifolia in rat plasma” (Pharmaceutical Biology, 2020) come the findings set out here.

A short description of this data set: Stability of the five analytes in rat plasma. As to conditions: rat plasma, n = 6; for Long-term stability, Mean: 4 weeks at −80 °C; for Short-term stability, Mean: 5 h at room temperature (25 °C); for Auto-sampler stability, Mean: 24 h in the autosampler at 4 °C; for Freeze-thaw stability, Mean: three freeze-thaw cycles from −20 °C to room temperature. Format: in vitro ADME. The method, then:
Stock standards of A5, A6, DSS, TFSA, TMCA and IS were prepared in methanol at a concentration of 1 mg/mL. A series of working standard solutions of the targeted compounds ranging from 10 to 20,000 ng/mL and the IS solution at 600 ng/mL were prepared by diluting the stock solutions with methanol and maintained at −20 °C. Calibration standards were freshly prepared by spiking the series of standard solutions (30 μL) including the IS into blank rat plasma (270 μL) to achieve concentrations of 1, 10, 50, 100, 500, 1000, 1600 and 2000 ng/mL. Quality control (QC) samples were prepared independently at low (2 ng/mL), medium (600 ng/mL) and high (1600 ng/mL) concentrations following the same method for the five compounds.
Stability studies included short-term stability (5 h at room temperature, i.e. 25 °C), freeze-thaw stability (three consecutive freeze-thaw cycles from −20 °C to room temperature), autosampler stability (24 h storage in the autosampler at 4 °C) and long-term stability (4 weeks storage at −80 °C). The stability data of all analytes are presented in Supplementary Table S4.

For the compound `COc1cc(C=CC(=O)O)cc(OC)c1OC` [TMCA, 3,4,5-trimethoxycinnamic acid], where the note is “2 ng/mL”, the “Long-term stability, Mean” value amounted to 98.3%; the “Short-term stability, Mean” value was 96.2%; the “Auto-sampler stability, Mean” value was 96.3%; the “Freeze-thaw stability, Mean” value is 95.3%. Also, where the note is “600 ng/mL”, the “Long-term stability, Mean” value stood at 95.5%; the “Short-term stability, Mean” value is listed as 98.3%; the “Auto-sampler stability, Mean” value was determined as 99.8%; the “Freeze-thaw stability, Mean” value came out at 97.3%. Further, for the setting “1600 ng/mL”, the “Long-term stability, Mean” value is on record as 95.8%; the “Short-term stability, Mean” value was 102.5%; the “Auto-sampler stability, Mean” value is reported as 99.5%; the “Freeze-thaw stability, Mean” value stood at 98.8%.
